Each structure is given as a SMILES string. The source made the active and inactive calls. The rule behind the calls is not given here.

For series [1], the system named is Mus musculus. In words: Antiangiogenic activity in matrigel injected Swiss albino mouse assessed as reduction in hemoglobin content in matrigel plug at 2.5 mg/kg, ip every other day for 20 days by matrigel assay. The series is classed as functional. More on the design: scale not given: the % may be the effect or the level left.
Series [2] deals with Vascular endothelial growth factor receptor 2 (Homo sapiens) (UniProt P35968). In words: Inhibition of VEGFR2 in human MDA-MB-231 cells assessed as reduction in PI3K phosphorylation at 20 to 50 uM by Western blot analysis. The series is classed as cell-based.
Sequence of Vascular endothelial growth factor receptor 2 (Homo sapiens) (P35968 whole entry): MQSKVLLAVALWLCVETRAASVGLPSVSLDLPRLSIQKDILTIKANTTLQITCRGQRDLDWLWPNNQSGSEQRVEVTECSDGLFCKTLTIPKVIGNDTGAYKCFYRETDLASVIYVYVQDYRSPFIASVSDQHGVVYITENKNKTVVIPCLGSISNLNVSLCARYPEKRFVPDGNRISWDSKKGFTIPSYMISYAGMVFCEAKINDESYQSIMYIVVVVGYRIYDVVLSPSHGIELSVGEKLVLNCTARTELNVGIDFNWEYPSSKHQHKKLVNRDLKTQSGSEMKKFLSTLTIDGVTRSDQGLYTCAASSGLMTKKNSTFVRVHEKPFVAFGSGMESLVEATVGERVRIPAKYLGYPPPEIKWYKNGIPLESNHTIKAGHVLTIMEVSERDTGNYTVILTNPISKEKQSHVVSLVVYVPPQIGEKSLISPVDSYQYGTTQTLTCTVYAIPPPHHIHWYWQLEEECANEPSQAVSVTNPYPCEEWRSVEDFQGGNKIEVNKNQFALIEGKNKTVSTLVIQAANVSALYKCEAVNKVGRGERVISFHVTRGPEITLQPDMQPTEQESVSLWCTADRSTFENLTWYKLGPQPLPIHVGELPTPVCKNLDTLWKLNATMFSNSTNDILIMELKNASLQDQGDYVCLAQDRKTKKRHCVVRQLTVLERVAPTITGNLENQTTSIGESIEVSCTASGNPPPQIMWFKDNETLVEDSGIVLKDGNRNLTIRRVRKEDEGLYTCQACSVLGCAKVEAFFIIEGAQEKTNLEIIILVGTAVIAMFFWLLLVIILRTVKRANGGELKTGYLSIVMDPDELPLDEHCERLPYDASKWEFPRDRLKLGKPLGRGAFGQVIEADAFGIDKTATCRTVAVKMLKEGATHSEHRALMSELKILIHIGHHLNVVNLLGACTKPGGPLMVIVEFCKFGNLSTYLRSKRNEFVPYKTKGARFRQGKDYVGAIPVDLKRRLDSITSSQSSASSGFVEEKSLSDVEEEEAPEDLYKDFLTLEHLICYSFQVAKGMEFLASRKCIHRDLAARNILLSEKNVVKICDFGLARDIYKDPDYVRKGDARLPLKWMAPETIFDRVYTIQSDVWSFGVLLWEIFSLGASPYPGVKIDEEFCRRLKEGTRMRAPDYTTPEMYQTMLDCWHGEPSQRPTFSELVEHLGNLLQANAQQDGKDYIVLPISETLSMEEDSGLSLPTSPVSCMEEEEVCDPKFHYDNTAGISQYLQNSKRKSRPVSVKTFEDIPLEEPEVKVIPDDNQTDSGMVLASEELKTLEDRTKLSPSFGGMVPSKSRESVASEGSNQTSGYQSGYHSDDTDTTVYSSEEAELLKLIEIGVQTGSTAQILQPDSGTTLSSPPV
The target is the same in series [3]. In words: Inhibition of VEGFR2 in human BT474 cells assessed as downregulation of phosphorylated paxillin levels at 50 uM by Western blot analysis. The series is classed as cell-based.
Series [4] shares this target. In words: Inhibition of VEGFR2 in human MDA-MB-231 cells assessed as downregulation of phosphorylated paxillin levels at 20 uM by Western blot analysis. The series is classed as cell-based.
Series [5] has the same target. In words: Inhibition of VEGFR2 in human BT474 cells assessed as reduction in PI3K phosphorylation at 20 to 50 uM by Western blot analysis. The series is classed as cell-based.
Series [6] has the same target. In words: Inhibition of VEGFR2 in human MDA-MB-231 cells assessed as downregulation of phosphorylated paxillin levels at 50 uM by Western blot analysis. The series is classed as cell-based.
The target is the same in series [7]. In words: Inhibition of VEGFR2 in human BT474 cells assessed as downregulation of phosphorylated FAK levels at 20 uM by Western blot analysis. The series is classed as cell-based.
Series [8] shares this target. In words: Inhibition of VEGFR2 in human BT474 cells assessed as downregulation of phosphorylated paxillin levels at 20 uM by Western blot analysis. The series is classed as cell-based.
The target is the same in series [9]. In words: Inhibition of VEGFR2 phosphorylation in human BT474 cells at 20 uM by Western blot analysis. The series is classed as cell-based.
For series [10] the target is unchanged. In words: Inhibition of VEGFR2 in human MDA-MB-231 cells assessed as reduction in Akt phosphorylation at 20 to 50 uM by Western blot analysis. The series is classed as cell-based.
Series [11] shares this target. In words: Inhibition of VEGFR2 phosphorylation in human BT474 cells at 50 uM by Western blot analysis. The series is classed as cell-based.
Series [12] relates to Serum. In words: Drug metabolism in athymic nude mouse serum assessed as dihydroxylated metabolite formation at 40 mg/kg, ip after 2 hrs by ES-MS analysis. The series is classed as ADME, organism-based. As to conditions: in vivo.
Series [13] addresses Vascular endothelial growth factor receptor 2 (Homo sapiens) (UniProt P35968). In words: Inhibition of VEGFR2 phosphorylation in human MDA-MB-231 cells at 20 uM by Western blot analysis. The series is classed as cell-based.
Series [14] deals with Serum. In words: Drug metabolism in athymic nude mouse serum assessed as monohydroxylated metabolite formation at 40 mg/kg, ip after 2 hrs by ES-MS analysis. The series is classed as ADME, organism-based. As to conditions: in vivo.
The target in series [15] is Vascular endothelial growth factor receptor 2 (Homo sapiens) (UniProt P35968). In words: Inhibition of VEGFR2 in human BT474 cells assessed as reduction in Akt phosphorylation at 20 to 50 uM by Western blot analysis. The series is classed as cell-based.
Series [16] shares this target. In words: Inhibition of VEGFR2 in human BT474 cells assessed as downregulation of phosphorylated FAK levels at 50 uM by Western blot analysis. The series is classed as cell-based.
The subject of series [17] is Serum. In words: Drug uptake in athymic nude mouse serum at 40 mg/kg, ip after 2 hrs by ES-MS analysis. As to conditions: in vivo. The series is classed as ADME, organism-based.
Series [18] has as its target Vascular endothelial growth factor receptor 2 (Homo sapiens) (UniProt P35968). In words: Inhibition of VEGFR2 phosphorylation in human MDA-MB-231 cells at 50 uM by Western blot analysis. The series is classed as cell-based.
Series [19] shares this target. In words: Inhibition of VEGFR2 in human MDA-MB-231 cells assessed as downregulation of phosphorylated FAK levels at 50 uM by Western blot analysis. The series is classed as cell-based.
Series [20] has the same target. In words: Inhibition of VEGFR2 in human MDA-MB-231 cells assessed as downregulation of phosphorylated FAK levels at 20 uM by Western blot analysis. The series is classed as cell-based.

Take `CCN(CC)CCNC(=O)c1c(C)[nH]c(/C=C2\C(=O)Nc3ccc(F)cc32)c1C` [SUNITINIB]: the Activity in series [1] came out at 80%.
On to `C/C1=C\[C@H](O)C[C@](C)(O)/C=C/[C@H](C(C)C)CC/C(C)=C/CC1`, for which the inhibition result in series [2], in series [5], in series [10] and in series [15] was “inactive” each time. Moreover, the inhibition in series [3] was 82.1%; in series [4], 58.7%; in [6], 96.1%; in [7], 48.9%; in [8] it was 70.9%; in [9] it was 43.1%. Further, the inhibition came out at 58.6% in [11]; 60.6% in series [13]; 74.8% in [16]; 65.3% in series [18]; 41.3% in [19]; 26% in [20]. The Drug metabolism entry in [12] and in series [14] was “Metabolite_Detected” throughout. For the same molecule, the Drug uptake entry in [17] is given as “Active”.
